Measurements as given in patent US20090030066A1, “SMALL MOLECULES FOR THE PROTECTION OF PANCREATIC CELLS” (priority 2007, published 2009).

Assays:
STZ-treated mice [1] = assay: STZ-treated mice, third experiment (fasted): blood glucose, body weight, survival; assay type: in vivo
Procedure: The effects of CCompound1 on blood glucose level and body weight as well as survival were also examined in a third experiment. Animals weighing between 24.6-25.3 g were selected for this experiment with each group consisting of 6 mice. One group of mice (group 1) received no treatment over the entire experiment, while in the other two groups (groups 2-3), animals were injected (i.p.) with 210 mg/kg of STZ on day 0. Animals in group 3 were also injected (i.p.) with 4.5 mg per kg of CCompound1 once daily for 10 days starting 24 h prior to STZ treatment. CCompound1 and STZ were dissolved as previously indicated.
In this experiment the animals were fasted for 13-14 hours (fasted overnight from 6 p.m. to 7-8 a.m. and returned to normal diet from 8 a.m. to 6 p.m) prior to taking the blood samples.

[2] = test system: AR42J rat pancreatic tumor cell line; assay: MTT proliferation of AR42J pancreatic tumor cells; assay type: cell-based; settings: 96 h
From the text: In the Examples below, an MTT assay was used to determine the relative number of viable cells after treatments. This calorimetric assay is based on the ability of living cells, but not dead cells, to reduce 3-(4,5-dimethyl thiazol-2-yl)-2,5-diphenyltetrazolium bromide. [Carmichael, J, De Graff, W. G., Gazdar, A. F., Minna, J. D. and Mitchell, J. B. (1987) Evaluation of tetrazolium-based semiautomated calorimetric assay: Assessment of chemosensitivity testing. Cancer Res. 47, 936-942], which is hereby incorporated by reference. For this assay, cells were plated in 96-well plates, and the MTT assay was performed as described in the above article both in untreated and treated cell cultures. The MTT assay also was performed at the time when the treatment was started to allow for assessment of the proliferation and survival rates in the control and treated cell cultures. In the MTT assay, higher values mean proportionally higher numbers of viable cells.
The AR42J rat pancreatic tumor cell line, purchased from ATTC (catalog number: CRL-1492), was propagated in modified Ham's medium containing 20% fetal bovine serum. These cells, derived from a transplantable tumor of the exocrine pancreas, contain significant amounts of amylase and other exocrine enzymes and they produce tumors in athymic mice.
For the experiment, cells were split in 96-well plates at 15,000 cells per well. After 24 hours, the medium was changed for fresh medium (0 hour) and various concentrations of CCompound1 and CCompound3 were added and incubations continued for 96 hours. The MTT assay was used to determine the relative number of viable cells. From the data shown in TABLE 13, in the 2-25 μM concentration range CC compounds had only inhibitory effects on the proliferation of pancreatic cancer cells.

STZ-treated mice [3] = assay: Blood glucose and body weight in STZ-treated mice, first experiment (not fasted); assay type: in vivo; settings: for Body weight: in g
Procedure: Male C57BL/6 mice (12 weeks old) were housed in a specific pathogen-free facility with a 12-h light/dark cycle and given free access to food and water. Animals weighing between 28-31 g were selected for the experiments. In each group, at the start of experiment the body weight among individual animals differed by less than 1-g.
One group of mice received no treatment over the entire experiment. A second group received only 4.5 mg per kg of CCompound1 on days −2, −1, 0, +1, +2, +3, +4, +5, +6 and +7. A third/fourth/fifth/sixth group of animals were treated i.p. with 210 mg/kg of STZ on day 0. The fourth, fifth, and sixth group of animals also received 4.5 mg per kg each of CCompound1 (CC1; 4th group) or CCompound3 (CC3; 5th group), or CCompound19 (CC19; 6th group) on days −2, −1, 0, +1, +2, +3, +4, +5, +6 and +7 (with STZ treatment given on day 0). Each group consisted of 7 animals. Body weight was measured regularly.
CC compounds were dissolved in physiological saline while STZ was dissolved in 100 mM sodium citrate (pH 4.5). All compounds were injected intraperitoneally in 0.5 ml volume. Control animals were injected physiological saline (0.5 ml) on the same days when other groups were treated with CC compounds.
Blood samples were taken from the eye (canthus) of the animals on days −1, 0, +1, +2, +3, +7 and +10, and glucose concentrations in whole blood samples were immediately measured with the commercially available fast Glucose C test. The animals were not fasted prior to taking the blood samples. The results are expressed as the mean values from 7 animals ±std. dev. (S.D.).

SMILES: Cc1c(OCC(O)C[N+](C)(C)C)cc2c(=O)c3ccccc3sc2c1C.[Cl-] (stereo not drawn) [CCcompound1, [3-(3,4-Dimethyl-9-oxo-9H-thioxanthen-2-yloxy)-2-hydroxypropyl]trimethyl-ammonium chloride]
- Blood glucose (STZ-treated mice [1]; STZ 210 mg/kg i.p. day 0 + compound 4.5 mg/kg i.p. daily for 10 days from day −1, fasted, day −1): 2.1 ± 0.3 mM
- Blood glucose (STZ-treated mice [1]; STZ + compound 4.5 mg/kg i.p. daily for 10 days (stopped day 9), fasted, day 14): 11.8 ± 1.0 mM
- Blood glucose (STZ-treated mice [1]; STZ + compound 4.5 mg/kg i.p. daily for 10 days (stopped day 9), fasted, day 21): 12.5 ± 0.8 mM
- Body weight (STZ-treated mice [1]; STZ + compound 4.5 mg/kg i.p. daily for 10 days, day 0): 25.1 ± 0.5 g
- Body weight (STZ-treated mice [1]; STZ + compound 4.5 mg/kg i.p. daily for 10 days, day 3): 24.3 ± 1.0 g
- Body weight (STZ-treated mice [1]; STZ + compound 4.5 mg/kg i.p. daily for 10 days, day 5): 24.2 ± 0.9 g
- Body weight (STZ-treated mice [1]; STZ + compound 4.5 mg/kg i.p. daily for 10 days, day 7): 24.1 ± 0.7 g
- Body weight (STZ-treated mice [1]; STZ + compound 4.5 mg/kg i.p. daily for 10 days, day 9): 24.3 ± 0.8 g
- Body weight (STZ-treated mice [1]; STZ + compound 4.5 mg/kg i.p. daily for 10 days, day 11): 24.3 ± 0.9 g
- Body weight (STZ-treated mice [1]; STZ + compound 4.5 mg/kg i.p. daily for 10 days, day 13): 24.5 ± 1.1 g
- Body weight (STZ-treated mice [1]; STZ + compound 4.5 mg/kg i.p. daily for 10 days, day 15): 23.9 ± 0.4 g
- Body weight (STZ-treated mice [1]; STZ + compound 4.5 mg/kg i.p. daily for 10 days, day 17): 24.5 ± 1.1 g
- Body weight (STZ-treated mice [1]; STZ + compound 4.5 mg/kg i.p. daily for 10 days, day 21): 24.4 ± 1.0 g
- Blood glucose (STZ-treated mice [1]; STZ + compound 4.5 mg/kg i.p. daily for 10 days, fasted, day 0): 2.1 ± 0.2 mM
- Blood glucose (STZ-treated mice [1]; STZ + compound 4.5 mg/kg i.p. daily for 10 days, fasted, day 1): 6.7 ± 0.7 mM
- Blood glucose (STZ-treated mice [1]; STZ + compound 4.5 mg/kg i.p. daily for 10 days, fasted, day 2): 7.1 ± 0.5 mM
- Blood glucose (STZ-treated mice [1]; STZ + compound 4.5 mg/kg i.p. daily for 10 days, fasted, day 3): 7.2 ± 0.5 mM
- Blood glucose (STZ-treated mice [1]; STZ + compound 4.5 mg/kg i.p. daily for 10 days, fasted, day 4): 7.6 ± 0.4 mM
- Blood glucose (STZ-treated mice [1]; STZ + compound 4.5 mg/kg i.p. daily for 10 days, fasted, day 5): 8.2 ± 0.4 mM
- Blood glucose (STZ-treated mice [1]; STZ + compound 4.5 mg/kg i.p. daily for 10 days, fasted, day 6): 8.6 ± 0.3 mM
- Blood glucose (STZ-treated mice [1]; STZ + compound 4.5 mg/kg i.p. daily for 10 days, fasted, day 7): 9.3 ± 0.5 mM
- Blood glucose (STZ-treated mice [1]; STZ + compound 4.5 mg/kg i.p. daily for 10 days, fasted, day 8): 10.4 ± 0.7 mM
- Blood glucose (STZ-treated mice [1]; STZ + compound 4.5 mg/kg i.p. daily for 10 days, fasted, day 9): 11.0 ± 1.1 mM
- mice alive on day 53 (STZ-treated mice [1]; STZ + compound, 6 mice per group): 6
- body weight lost (STZ-treated mice [1]; co-treated with compound and STZ, day 0 to day 21): 0.7 to 1.2 g
- reduction of the effects of STZ on blood glucose level (STZ-treated mice [1]; days 3 and 4): more than 50%
- A540 (MTT, relative number of viable cells) ([2]; 2 μM): 1.092 ± 0.083
- A540 (MTT, relative number of viable cells) ([2]; 5 μM): 0.954 ± 0.080
- A540 (MTT, relative number of viable cells) ([2]; 10 μM): 0.882 ± 0.062
- A540 (MTT, relative number of viable cells) ([2]; 25 μM): 0.781 ± 0.090
- effect of compound alone on blood glucose level (STZ-treated mice [3]; 4.5 mg/kg i.p., no STZ): no effect on blood glucose level
- Body weight (STZ-treated mice [3]; STZ 210 mg/kg + compound 4.5 mg/kg i.p., day 0, unit not given): 28.2 ± 0.7
- Body weight (STZ-treated mice [3]; STZ 210 mg/kg + compound 4.5 mg/kg i.p., day +1, unit not given): 28.0 ± 0.7
- Body weight (STZ-treated mice [3]; STZ 210 mg/kg + compound 4.5 mg/kg i.p., day +2, unit not given): 26.9 ± 0.8
- Body weight (STZ-treated mice [3]; STZ 210 mg/kg + compound 4.5 mg/kg i.p., day +3, unit not given): 26.9 ± 0.5
- Body weight (STZ-treated mice [3]; STZ 210 mg/kg + compound 4.5 mg/kg i.p., day +7, unit not given): 27.1 ± 0.7
- Body weight (STZ-treated mice [3]; STZ 210 mg/kg + compound 4.5 mg/kg i.p., day +10, unit not given): 27.2 ± 0.9
- Blood glucose (STZ-treated mice [3]; STZ 210 mg/kg i.p. day 0 + compound 4.5 mg/kg i.p. days −2 to +7, day 0): 4.1 ± 0.4 mM
- Blood glucose (STZ-treated mice [3]; STZ 210 mg/kg i.p. day 0 + compound 4.5 mg/kg i.p. days −2 to +7, day +1): 5.7 ± 0.5 mM
- Blood glucose (STZ-treated mice [3]; STZ 210 mg/kg i.p. day 0 + compound 4.5 mg/kg i.p. days −2 to +7, day +2): 8.2 ± 1.4 mM
- Blood glucose (STZ-treated mice [3]; STZ 210 mg/kg i.p. day 0 + compound 4.5 mg/kg i.p. days −2 to +7, day +3): 10.1 ± 1.5 mM
- Blood glucose (STZ-treated mice [3]; STZ 210 mg/kg i.p. day 0 + compound 4.5 mg/kg i.p. days −2 to +7, day +7): 10.9 ± 1.2 mM
- Blood glucose (STZ-treated mice [3]; STZ 210 mg/kg i.p. day 0 + compound 4.5 mg/kg i.p. days −2 to +7, day +10): 11.0 ± 0.8 mM
- Blood glucose (STZ-treated mice [3]; STZ 210 mg/kg i.p. day 0 + compound 4.5 mg/kg i.p. days −2 to +7, day −1): 4.6 ± 0.7 mM
- protection of islet β-cells (STZ-treated mice [3]; STZ-induced type 1 diabetes model): protected islet β-cells
- effect on STZ-induced rise of blood glucose (STZ-treated mice [3]; STZ-treated animals, 4.5 mg/kg i.p.): prevent drastic increase in blood glucose level
- effect on STZ-induced body weight loss (STZ-treated mice [3]; STZ-treated mice, to day 10): reduced the effect of STZ on body weight
- Blood glucose (STZ-treated mice [3]; compound alone 4.5 mg/kg i.p. days −2 to +7, no STZ, day 0): 4.5 ± 0.4 mM
- Blood glucose (STZ-treated mice [3]; compound alone 4.5 mg/kg i.p. days −2 to +7, no STZ, day +1): 4.7 ± 0.6 mM
- Blood glucose (STZ-treated mice [3]; compound alone 4.5 mg/kg i.p. days −2 to +7, no STZ, day +2): 4.6 ± 0.4 mM
- Blood glucose (STZ-treated mice [3]; compound alone 4.5 mg/kg i.p. days −2 to +7, no STZ, day +3): 4.7 ± 0.4 mM
- Blood glucose (STZ-treated mice [3]; compound alone 4.5 mg/kg i.p. days −2 to +7, no STZ, day +7): 4.6 ± 0.4 mM
- Blood glucose (STZ-treated mice [3]; compound alone 4.5 mg/kg i.p. days −2 to +7, no STZ, day +10): 4.3 ± 0.6 mM
- Blood glucose (STZ-treated mice [3]; compound alone 4.5 mg/kg i.p. days −2 to +7, no STZ, day −1): 4.5 ± 0.4 mM
- Body weight (STZ-treated mice [3]; compound alone 4.5 mg/kg i.p., no STZ, day 0, unit not printed in table (animals 28-31 g)): 28.2 ± 0.9
- Body weight (STZ-treated mice [3]; compound alone 4.5 mg/kg i.p., no STZ, day +1, unit not given): 28.7 ± 0.4
- Body weight (STZ-treated mice [3]; compound alone 4.5 mg/kg i.p., no STZ, day +2, unit not given): 28.1 ± 0.4
- Body weight (STZ-treated mice [3]; compound alone 4.5 mg/kg i.p., no STZ, day +3, unit not given): 28.7 ± 0.7
- Body weight (STZ-treated mice [3]; compound alone 4.5 mg/kg i.p., no STZ, day +7, unit not given): 29.5 ± 0.8
- Body weight (STZ-treated mice [3]; compound alone 4.5 mg/kg i.p., no STZ, day +10, unit not given): 30.3 ± 1.4
